Data as given in ChEMBL document CHEMBL1201862, “PubChem BioAssay data set” (2004).
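Assay format: 96-well plates, 48-hour exposure. GI50 is the concentration that inhibits growth by half.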 Active and inactive are the calls of the source. Rule as the data show it: active = GI50 up to about 1.1 µM and inactive = higher.

What was measured:
Assay in all cases: DTP human tumour cell line panel, 48 h
DMS-273 = system: DMS-273
MDA-MB-435 = system: MDA-MB-435
MCF7 = system: MCF7
HOP-18 = system: HOP-18
DMS-114 = system: DMS-114
PC-3 = system: PC-3
BT-549 = system: BT-549
TK-10 = system: TK-10
OVCAR-4 = system: OVCAR-4
UO-31 = system: UO-31
HOP-92 = system: HOP-92
786-0 = system: 786-0
SW-620 = system: SW-620
UACC-62 = system: UACC-62
SK-MEL-2 = system: SK-MEL-2
A549 = system: A549
SF-539 = system: SF-539
SF-268 = system: SF-268
HCC 2998 = system: HCC 2998
A498 = system: A498
SNB-75 = system: SNB-75
SK-MEL-5 = system: SK-MEL-5
HT-29 = system: HT-29
HCT-116 = system: HCT-116
NCI-H226 = system: NCI-H226
DLD-1 = system: DLD-1
SNB-78 = system: SNB-78
LXFL 529 = system: LXFL 529
RXF 393 = system: RXF 393
Malme-3M = system: Malme-3M
CCRF-CEM = system: CCRF-CEM
NCI-H522 = system: NCI-H522
M19-MEL = system: M19-MEL
SK-OV-3 = system: SK-OV-3
MOLT-4 = system: MOLT-4
HOP-62 = system: HOP-62
NCI/ADR-RES = system: NCI/ADR-RES
RPMI-8226 = system: RPMI-8226
KM-20L2 = system: KM-20L2
HCT-15 = system: HCT-15
MDA-N = system: MDA-N
DU-145 = system: DU-145
OVCAR-3 = system: OVCAR-3
M14 = system: M14
HL-60 = system: HL-60
SN12C = system: SN12C
OVCAR-5 = system: OVCAR-5
EKVX = system: EKVX
SNB-19 = system: SNB-19
SF-295 = system: SF-295
IGROV-1 = system: IGROV-1
OVCAR-8 = system: OVCAR-8
K562 = system: K562
COLO 205 = system: COLO 205
NCI-H460 = system: NCI-H460
U-251 = system: U-251
XF498 = system: XF498
KM12 = system: KM12
UACC-257 = system: UACC-257
SK-MEL-28 = system: SK-MEL-28
MDA-MB-231 = system: MDA-MB-231
T47D = system: T47D
SR = system: SR
NCI-H23 = system: NCI-H23
LOX IMVI = system: LOX IMVI
ACHN = system: ACHN
CAKI-1 = system: CAKI-1
RXF 631 = system: RXF 631

Measured: GI50

COc1cc(C2c3cc4c(cc3[C@@H](Nc3cccc(O)c3)C3COC(=O)[C@H]23)OCO4)cc(OC)c1O (stereo not given in full)
inactive: MDA-MB-435 2.95 µM | HOP-18 8.59 µM | PC-3 2.14 µM | BT-549 1.91 µM | TK-10 4.51 µM | OVCAR-4 12.2 µM | UO-31 1.57 µM | HOP-92 1.32 µM | 786-0 2.07 µM | SW-620 2.8 µM | UACC-62 1.2 µM | SK-MEL-2 5.2 µM | SF-539 1.14 µM | SF-268 1.89 µM | HCC 2998 3.58 µM | A498 1.62 µM | SNB-75 2.38 µM | SK-MEL-5 1.7 µM | HT-29 3.33 µM | HCT-116 1.76 µM | DLD-1 3.56 µM | SNB-78 6.03 µM | LXFL 529 2.55 µM | RXF 393 1.44 µM | Malme-3M 2.3 µM | NCI-H522 1.32 µM | M19-MEL 1.97 µM | SK-OV-3 4.61 µM | NCI/ADR-RES 1.4 µM | KM-20L2 2.16 µM | MDA-N 2.7 µM | OVCAR-3 4.04 µM | M14 2.79 µM | SN12C 1.55 µM | OVCAR-5 8.26 µM | EKVX 5.16 µM | SNB-19 3.7 µM | IGROV-1 3.98 µM | OVCAR-8 2 µM | K562 1.69 µM | COLO 205 6.17 µM | U-251 2.04 µM | KM12 3.31 µM | UACC-257 2.05 µM | SK-MEL-28 2.81 µM | MDA-MB-231 5.42 µM | T47D 2.24 µM
1.93 µM: HCT-15
active: DMS-273 0.887 µM | MCF7 0.46 µM | DMS-114 0.794 µM | A549 0.439 µM | NCI-H226 0.771 µM | CCRF-CEM 0.425 µM | MOLT-4 0.0359 µM | HOP-62 0.817 µM | RPMI-8226 0.948 µM | DU-145 0.197 µM | HL-60 0.445 µM | SF-295 1.09 µM | NCI-H460 0.0726 µM | XF498 0.766 µM | SR 0.191 µM | NCI-H23 1.05 µM | LOX IMVI 0.703 µM | ACHN 0.668 µM

O=C1CCC2(c3ccccc3)Nc3ccc(Cl)cc3N12 (stereo not given)
inactive: DMS-114 63.5 µM | TK-10 > 100 µM | CAKI-1 > 100 µM | OVCAR-4 > 100 µM | UO-31 > 100 µM | HOP-92 84.5 µM | 786-0 > 100 µM | SW-620 > 100 µM | UACC-62 > 100 µM | SK-MEL-2 > 100 µM | A549 > 100 µM | SF-539 > 100 µM | SF-268 > 100 µM | HCC 2998 > 100 µM | A498 > 100 µM | SNB-75 37.7 µM | SK-MEL-5 > 100 µM | HT-29 > 100 µM | NCI-H226 > 100 µM | DLD-1 > 100 µM | SNB-78 > 100 µM | LXFL 529 > 100 µM | RXF 393 > 100 µM | Malme-3M > 100 µM | CCRF-CEM > 100 µM | NCI-H522 > 100 µM | M19-MEL > 100 µM | SK-OV-3 > 100 µM | MOLT-4 > 100 µM | HOP-62 > 100 µM | RPMI-8226 > 100 µM | KM-20L2 > 100 µM | OVCAR-3 > 100 µM | M14 > 100 µM | HL-60 > 100 µM | SN12C > 100 µM | OVCAR-5 > 100 µM | EKVX > 100 µM | SF-295 > 100 µM | IGROV-1 > 100 µM | OVCAR-8 > 100 µM | K562 77.8 µM | COLO 205 > 100 µM | NCI-H460 > 100 µM | U-251 > 100 µM | XF498 > 100 µM | KM12 > 100 µM | UACC-257 > 100 µM | SK-MEL-28 > 100 µM | NCI-H23 > 100 µM | RXF 631 > 100 µM | LOX IMVI > 100 µM | ACHN > 100 µM
> 100 µM: HCT-15
